Drawing on patent US20190375708A1 (VenatoRx Pharmaceuticals, Inc., priority 2018, published 2019), this text covers EC50 and CC50 for 26 compounds.

Series [1] has as its system HBV replication in HepAD38 cells. The experiment in a line: Anti-HBV replication assay in HepAD38 cells (QPCR of extracellular HBV DNA). The conditions noted are these: Hepatitis B virus, 168 h, 7 days incubation, extracellular HBV DNA by QPCR, read-out: Anti-HBV EC50. Format: cell-based, HBV (genotype D, serotype ayw). The method, boiled down:
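Compounds (1 log10 serial dilutions, […]) were left 7 days on tetracycline-free HepAD38 cultures, a HepG2 line with tet-controlled HBV genotype D. EC50 came from 4-parameter regression of percent inhibition versus vehicle, using supernatant HBV DNA copies/mL measured by QPCR.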

The nature of series [2]: In vitro cytotoxicity assay (MTT cell viability) in HepG2 cells. Format: cell-based, human. The conditions noted are these: human. The method, boiled down:
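CC50 values reflect loss of HepG2 viability after a 7-day exposure at 37 °C, 5% CO2. After 3-4 h with MTT, solubilized formazan was quantified at 492 nm relative to vehicle wells.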

As to `Cc1cc(NC(=O)c2c(C)c(C(=O)C(=O)NCCn3ccnc3)n(C)c2C)ccc1F` [Example 346, 5-(2-((2-(1H-imidazol-1-yl)ethyl)amino)-2-oxoacetyl)-N-(4-fluoro-3-methylphenyl)-1,2,4-trimethyl-1H-pyrrole-3-carboxamide], the EC50 (commonly the concentration needed to bring the measured effect to its halfway point) in series [1] is below 50 nM. Besides, in series [2], the CC50 (commonly the concentration that lowers cell viability or growth by half) at 7 days was above 30000 nM.

As to `Cc1cc(NC(=O)c2c(C)c(C(=O)C(=O)NCCc3cccs3)n(C)c2C)ccc1F` [Example 347, N-(4-fluoro-3-methylphenyl)-1,2,4-trimethyl-5-(2-oxo-2-((2-(thiophen-2-yl)ethyl)amino)acetyl)-1H-pyrrole-3-carboxamide], the EC50 in series [1] is below 50 nM. In series [2], this compound had a CC50 at 7 days above 30000 nM.

With `Cc1cc(NC(=O)c2c(C)c(C(=O)C(=O)NCCc3nnc[nH]3)n(C)c2C)ccc1F` [Example 348, 5-(2-((2-(4H-1,2,4-triazol-3-yl)ethyl)amino)-2-oxoacetyl)-N-(4-fluoro-3-methylphenyl)-1,2,4-trimethyl-1H-pyrrole-3-carboxamide], the half-maximal effective concentration (EC50) in series [1] was below 50 nM. Besides, in series [2], the CC50 at 7 days was above 30000 nM.

Take `Cc1cc(NC(=O)c2c(C)c(C(=O)NC(C)(C)CN3CCOCC3)n(C)c2C)ccc1F` [Example 349, N4-(4-fluoro-3-methylphenyl)-1,3,5-trimethyl-N2-(2-methyl-1-morpholinopropan-2-yl)-1H-pyrrole-2,4-dicarboxamide]: the EC50 in series [1] was above 1000 nM. For the same compound, in series [2], the CC50 at 7 days was above 30000 nM.

As to `Cc1c(C(=O)Nc2ccc(F)nc2)c(C)n(C)c1C(=O)C(=O)NC(C)(C)CN1CCOCC1` [Example 350, N-(6-fluoropyridin-3-yl)-1,2,4-trimethyl-5-(2-((2-methyl-1-morpholinopropan-2-yl)amino)-2-oxoacetyl)-1H-pyrrole-3-carboxamide], in series [1], the EC50 fell in the range of 500 to 1000 nM. In addition, the CC50 at 7 days in series [2] is above 30000 nM.

Regarding `Cc1cc(NC(=O)c2c(C)c(C(=O)C(=O)NC(C)(C)CN3CCOCC3)n(C)c2C)cnc1F` [Example 351, N-(6-fluoro-5-methylpyridin-3-yl)-1,2,4-trimethyl-5-(2-((2-methyl-1-morpholiinopropan-2-yl)amino)-2-oxoacetyl)-1H-pyrrole-3-carboxamide], in series [1], the EC50 lay within 50 to 499 nM. This compound displayed a CC50 at 7 days in series [2] above 30000 nM.

On to `Cc1cc(NC(=O)c2c(C)c(C(=O)C(=O)NCC(C)(C)N3CCOCC3)n(C)c2C)ccc1F` [Example 352, N-(4-fluoro-3-methylphenyl)-1,2,4-trimethyl-5-(2-((2-methyl-2-morpholinopropyl)amino)-2-oxoacetyl)-1H-pyrrole-3-carboxamide], for which, in series [1], the EC50 lay in the range of 50 to 499 nM. Also, the CC50 at 7 days in series [2] was above 30000 nM.

For the compound `Cc1cc(NC(=O)c2c(C)c(C(=O)C(=O)NC3CCCN(C)CC3)n(C)c2C)ccc1F` (stereo not shown) [Example 353, N-(44-fluoro-3-methylphenyl)-1,2,4-trimethyl-5-(2-((1-methylazepan-4-yl)amino)-2-oxoacetyl)-1H-pyrrole-3-carboxamide], the EC50 in series [1] fell in the range of 50 to 499 nM. This compound registered a CC50 at 7 days in series [2] above 30000 nM.

For the compound `CC(=O)N1CCC(NC(=O)C(=O)c2c(C)c(C(=O)Nc3ccc(F)c(C)c3)c(C)n2C)CC1` [Example 354, 5-(2-((1-acetylpiperidin-4-yl)amino)-2-oxoacetyl)-N-(4-fluoro-3-methylphenyl)-1,2,4-trimethyl-1H-pyrrole-3-carboxamide], the EC50 in series [1] was below 50 nM. For the same compound, in series [2], the CC50 at 7 days is above 30000 nM.

For `Cc1nc2c(s1)C(NC(=O)C(=O)c1c(C)c(C(=O)Nc3ccc(F)c(C)c3)c(C)n1C)CCC2` (stereo not shown) [Example 355, N-(4-fluoro-3-methylphenyl)-1,2,4-trimethyl-5-(2-((2-methyl-4,5,6,7-tetrahydrobenzo[d]thiazol-7-yl)amino)-2-oxoacetyl)-1H-pyrrole-3-carboxamide], the EC50 in series [1] is below 50 nM. Also, the CC50 at 7 days in series [2] was above 30000 nM.

Take `Cc1nnc(CCNC(=O)C(=O)c2c(C)c(C(=O)Nc3ccc(F)c(C)c3)c(C)n2C)s1` [Example 356]: in series [1], the EC50 is below 50 nM. In addition, in series [2], the CC50 at 7 days is above 30000 nM.

As for `Cc1c(C(=O)Nc2ccc(F)c(Cl)c2)c(C)n(C)c1C(=O)C(=O)NC12CCC(O)(CC1)CC2` [Example 357, N-(3-chloro-4-fluorophenyl)-5-(2-((4-hydroxybicyclo[2.2.2]octan-1-yl)amino)-2-oxoacetyl)-1,2,4-trimethyl-1H-pyrrole-3-carboxamide], the EC50 in series [1] is below 50 nM. Further, in series [2], the CC50 at 7 days was above 30000 nM.

On to `COCC1(CNC(=O)C(=O)c2c(C)c(C(=O)Nc3ccc(F)c(C)c3)c(C)n2C)CCCCC1` [Example 358, N-(4-fluoro-3-methylphenyl)-5-(2-(((1-(methoxymethyl)cyclohexyl)methyl)amino)-2-oxoacetyl)-1,2,4-trimethyl-1H-pyrrole-3-carboxamide], for which the EC50 in series [1] was below 50 nM. The CC50 at 7 days in series [2] was above 30000 nM.

Take `Cc1cc(NC(=O)c2c(C)c(C(=O)C(=O)NC3(CO)CCCC3)n(C)c2C)ccc1F` [Example 359, N-(4-fluoro-3-methylphenyl)-5-(2-((1-(hydroxymethyl)cyclopentyl)amino)-2-oxoacetyl)-1,2,4-trimethyl-1H-pyrrole-3-carboxamide]: the EC50 in series [1] was below 50 nM. In series [2], this compound returned a CC50 at 7 days above 30000 nM.

Take `Cc1cc(NC(=O)c2c(Cl)c(C(=O)C(=O)NC(C)(C)C)n(C)c2C)ccc1F` [Example 363, 5-(2-(tert-butylamino)-2-oxoacetyl)-4-chloro-N-(4-fluoro-3-methylphenyl)-1,2-dimethyl-1H-pyrrole-3-carboxamide]: the EC50 in series [1] is below 50 nM. This compound returned a CC50 at 7 days in series [2] above 30000 nM.

For `Cc1cc(NC(=O)c2c(Cl)c(C(=O)C(=O)NCC(C)(C)O)n(C)c2C)ccc1F` [Example 364, 4-chloro-N-(4-fluoro-3-methylphenyl)-5-(2-((2-hydroxy-2-methylpropyl)amino)-2-oxoacetyl)-1,2-dimethyl-1H-pyrrole-3-carboxamide], the EC50 in series [1] was below 50 nM. Further, the CC50 at 7 days in series [2] was in the range of 5000 to 30000 nM.

As for `Cc1cc(NC(=O)c2c(Cl)c(C(=O)C(=O)NC(C)(C)CO)n(C)c2C)ccc1F` [Example 365, 4-chloro-N-(4-fluoro-3-methylphenyl)-5-(2-((1-hydroxy-2-methylpropan-2-yl)amino)-2-oxoacetyl)-1,2-dimethyl-1H-pyrrole-3-carboxamide], in series [1], the EC50 is below 50 nM. In series [2], this compound came in with a CC50 at 7 days above 30000 nM.

Take `Cc1cc(NC(=O)c2c(Cl)c(C(=O)C(=O)NC3(CO)CC(F)(F)C3)n(C)c2C)ccc1F` [Example 366, 4-chloro-5-(2-((3,3-difluoro-1-(hydroxymethyl)cyclobutyl)amino)-2-oxoacetyl)-N-(4-fluoro-3-methylphenyl)-1,2-dimethyl-1H-pyrrole-3-carboxamide]: the EC50 in series [1] is below 50 nM. The compound also gave a CC50 at 7 days in series [2] above 30000 nM.

Turning to `Cc1cc(NC(=O)c2c(Cl)c(C(=O)C(=O)N[C@@H]3CCC[C@@H]3O)n(C)c2C)ccc1F` [Example 367, 4-chloro-N-(4-fluoro-3-methylphenyl)-5-(2-(((1R,2S)-2-hydroxycyclopentyl)aminO)-2-oxoacetyl)-1,2-dimethyl-1H-pyrrole-3-carboxamide], in series [1], the EC50 was below 50 nM. The compound further gave a CC50 at 7 days in series [2] of 5000 to 30000 nM.

As for `Cc1c(C(=O)Nc2cc(F)c(F)c(F)c2)c(Cl)c(C(=O)C(=O)NC(C)(C)C)n1C` [Example 369, 5-(2-(tert-butylamino)-2-oxoacetyl)-4-chloro-1,2-dimethyl-N-(3,4,5-trifluorophenyl)-1H-pyrrole-3-carboxamide], the EC50 in series [1] was below 50 nM. The same compound registered a CC50 at 7 days in series [2] above 30000 nM.

Regarding `Cc1c(C(=O)Nc2ccc(F)c(Cl)c2)c(Cl)c(C(=O)C(=O)NC(C)(C)C)n1C` [Example 370, 5-(2-(tert-butylamino)-2-oxoacetyl)-4-chloro-N-(3-chloro-4-fluorophenyl)-1,2-dimethyl-1H-pyrrole-3-carboxamide], the EC50 in series [1] was below 50 nM. Further, the CC50 at 7 days in series [2] is above 30000 nM.

Consider `Cc1cc(NC(=O)c2c(Cl)c(C(=O)C(=O)NC(C)(C)C)n(C)c2C)cnc1F` [Example 371, 5-(2-(tert-butylamino)-2-oxoacetyl)-4-chloro-N-(6-fluoro-5-methylpyridin-3-yl)-1,2-dimethyl-1H-pyrrole-3-carboxamide], for which the EC50 in series [1] was 50 to 499 nM. The CC50 at 7 days in series [2] is above 30000 nM.

As for `Cc1c(C(=O)Nc2cc(F)c(F)c(F)c2)c(Cl)c(C(=O)C(=O)NCC(C)(C)O)n1C` [Example 372, 4-chloro-5-(2-((2-hydroxy-2-methylpropyl)amino)-2-oxoacetyl)-1,2-dimethyl-N-(3,4,5-trifluorophenyl)-1H-pyrrole-3-carboxamide], the EC50 in series [1] was below 50 nM. This compound also showed a CC50 at 7 days in series [2] of 500 to 4990 nM.

On to `Cc1c(C(=O)Nc2cc(F)c(F)c(F)c2)c(Cl)c(C(=O)C(=O)NC(C)(C)CO)n1C` [Example 373, 4-chloro-5-(2-((1-hydroxy-2-methylpropan-2-yl)amino)-2-oxoacetyl)-1,2-dimethyl-N-(3,4,5-trifluorophenyl)-1H-pyrrole-3-carboxamide], for which the EC50 in series [1] was below 50 nM. Further, the 50% cytotoxic concentration (CC50) at 7 days in series [2] lay within 500 to 4990 nM.

Regarding `Cc1c(C(=O)Nc2cc(F)c(F)c(F)c2)c(Cl)c(C(=O)C(=O)N[C@@H]2CCC[C@@H]2O)n1C` [Example 374, 4-chloro-5-(2-(((1R,2S)-2-hydroxycyclopentyl)amino)-2-oxoacetyl)-1,2-dimethyl-N-(3,4,5-trifluorophenyl)-1H-pyrrole-3-carboxamide], the EC50 in series [1] is below 50 nM. For the same compound, the CC50 at 7 days in series [2] is 500 to 4990 nM.

`Cc1c(C(=O)Nc2ccc(F)c(F)c2)c(Cl)c(C(=O)C(=O)NC2(C)CC(F)(F)C2)n1C` [Example 375, 4-chloro-5-(2-((3,3-difluoro-1-methylcyclobutyl)amino)-2-oxoacetyl)-N-(3,4-difluorophenyl)-1,2-dimethyl-1H-pyrrole-3-carboxamide]: the half-maximal effective concentration (EC50) in series [1] is below 50 nM. Further, in series [2], the half-maximal cytotoxic concentration (CC50) at 7 days is above 30000 nM.
